{"source": "paper PMC7357171", "about": "(Toxicological Sciences, 2020)", "key": {"[1]": {"target": "carbonic anhydrase type I", "conditions": "read-out: Ki used as PoD for the MoS calculation; ref PubChem; cited from earlier work"}, "[2]": {"target": "carbonic anhydrase type IV", "conditions": "read-out: Ki used as PoD for the MoS calculation; ref PubChem; cited from earlier work"}, "CYP2A6": {"target": "T1, CYP2A6 (Homo sapiens, UniProt P11509)", "T1 sequence (P11509 1-494)": "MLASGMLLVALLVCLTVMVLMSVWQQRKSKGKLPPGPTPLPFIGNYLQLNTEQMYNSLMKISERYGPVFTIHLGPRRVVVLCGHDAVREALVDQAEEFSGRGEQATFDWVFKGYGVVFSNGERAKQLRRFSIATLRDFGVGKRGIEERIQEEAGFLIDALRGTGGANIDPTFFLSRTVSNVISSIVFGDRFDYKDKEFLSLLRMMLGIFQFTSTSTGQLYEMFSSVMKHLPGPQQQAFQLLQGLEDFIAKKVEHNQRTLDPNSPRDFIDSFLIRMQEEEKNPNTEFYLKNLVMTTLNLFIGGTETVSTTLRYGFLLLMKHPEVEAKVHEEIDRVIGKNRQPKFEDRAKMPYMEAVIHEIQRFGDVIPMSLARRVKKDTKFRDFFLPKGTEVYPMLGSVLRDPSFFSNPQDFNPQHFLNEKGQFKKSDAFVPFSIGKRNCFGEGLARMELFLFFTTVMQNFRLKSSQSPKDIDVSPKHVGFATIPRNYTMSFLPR", "experiment": "Compound stability in expressed human CYP2A6", "conditions": "heterologously expressed (recombinant) CYP2A6"}, "[3]": {"tested_on": "LPS-stimulated PBMC and endothelial cell coculture system", "experiment": "BioMap Diversity 8 Panel, LPS system", "assay_type": "cell-based, human", "conditions": "up to 500 µM"}, "HepaRG 2D": {"tested_on": "HepaRG 2D", "experiment": "High-throughput transcriptomics"}, "[4]": {"experiment": "Human cryopreserved hepatocyte stability assay", "assay_type": "in vitro ADME", "conditions": "cryopreserved hepatocytes"}, "[5]": {"tested_on": "SAg-stimulated PBMC and endothelial cell coculture system", "experiment": "BioMap Diversity 8 Panel, SAg system", "assay_type": "cell-based, human", "conditions": "up to 500 µM"}, "[6]": {"tested_on": "8 cell-based human primary cell cultures (or cocultures)", "conditions": "ref ToxCast, CompTox Chemicals Dashboard; cited from earlier work"}, "HepaRG 3D [7]": {"tested_on": "HepaRG 3D", "experiment": "High-throughput transcriptomics", "assay_type": "cell-based, human"}, "MAO-A [8]": {"target": "T2, MAO-A (Rattus norvegicus, UniProt P21396)", "T2 sequence (P21396 1-526)": "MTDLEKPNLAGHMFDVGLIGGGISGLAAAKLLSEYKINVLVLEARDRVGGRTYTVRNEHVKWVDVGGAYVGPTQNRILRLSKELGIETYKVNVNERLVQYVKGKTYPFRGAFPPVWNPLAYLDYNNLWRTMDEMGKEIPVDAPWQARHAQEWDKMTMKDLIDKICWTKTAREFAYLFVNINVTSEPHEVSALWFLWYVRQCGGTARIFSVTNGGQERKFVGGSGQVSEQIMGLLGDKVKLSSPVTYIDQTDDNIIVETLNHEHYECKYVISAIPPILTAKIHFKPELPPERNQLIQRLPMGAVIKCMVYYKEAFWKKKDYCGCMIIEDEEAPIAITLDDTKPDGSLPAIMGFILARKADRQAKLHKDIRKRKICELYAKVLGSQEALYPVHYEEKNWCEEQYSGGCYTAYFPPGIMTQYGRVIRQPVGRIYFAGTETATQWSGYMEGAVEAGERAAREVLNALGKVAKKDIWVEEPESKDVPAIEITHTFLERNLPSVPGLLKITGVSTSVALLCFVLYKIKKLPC", "conditions": "ref Gnerre et al., 2000; cited from earlier work"}, "MAO-B": {"tested_on": "MAO-B", "conditions": "ref Gnerre et al., 2000; cited from earlier work"}, "[9]": {"experiment": "Determination of the margin of safety", "conditions": "for Preliminary MoS (range): PoDs of the in vitro bioactivity characterization step"}, "MAO-A [10]": {"target": "T2, MAO-A", "experiment": "SafetyScreen44 MAO-A", "assay_type": "binding", "conditions": "coumarin 10 µM"}, "MCF7": {"tested_on": "MCF7", "experiment": "High-throughput transcriptomics"}, "[11]": {"conditions": "assessment factor of 100 on the animal NOAEL; ref EFSA, 2008; cited from earlier work"}, "mES reporter cell lines": {"tested_on": "mES reporter cell lines", "experiment": "ToxTracker genotoxicity assay", "assay_type": "cell-based"}, "HepaRG 3D [12]": {"tested_on": "HepaRG 3D", "experiment": "In vitro cell stress panel in HepaRG 3D spheroids", "assay_type": "cell-based, human"}}, "note": "Marks after values point to notes of the source that are not given here.", "data": [{"smiles": "O=c1ccc2ccccc2o1", "note": "[Coumarin]", "values": [{"measurement": "Ki", "setting": "[1]", "result": 3, "unit": "µM"}, {"measurement": "Ki", "setting": "[2]", "result": 62.3, "unit": "µM"}, {"measurement": "PoDT, 20 pathways with the lowest BMD Reactome", "setting": "HepG2; HepG2, 24 h", "result": 44, "unit": "µM"}, {"measurement": "PoDT, BMD of Reactome pathway with lowest BMD that meets significance threshold criteria", "setting": "HepG2; HepG2, 24 h", "result": 31, "unit": "µM"}, {"measurement": "PoDT, Mean BMD of genes between 25th and 75th percentile", "setting": "HepG2; HepG2, 24 h", "result": 17, "unit": "µM"}, {"measurement": "number of genes in gene-level tests", "setting": "HepG2; HepG2, 24 h", "result": "(1570 genes)"}, {"measurement": "number of pathways in pathway-level tests", "setting": "HepG2; HepG2, 24 h", "result": "(308 pathways)"}, {"measurement": "cytotoxicity (> 20%)", "setting": "HepG2; HepG2, up to the maximum tested concentration, data not shown", "result": "No significant cytotoxicity"}, {"measurement": "half-life at 1 µM", "setting": "CYP2A6", "result": "< 5", "unit": "min"}, {"measurement": "biomarkers affected", "setting": "[3]", "result": "No biomarkers were affected"}, {"measurement": "cytotoxicity (> 20%)", "setting": "HepaRG 2D; 2D HepaRG, up to the maximum tested concentration, data not shown", "result": "No significant cytotoxicity"}, {"measurement": "PoDT, Mean BMD of genes between 25th and 75th percentile", "setting": "HepaRG 2D; HepaRG 2D, 24 h", "result": 59, "unit": "µM"}, {"measurement": "number of pathways in pathway-level tests", "setting": "HepaRG 2D; HepaRG 2D, 24 h", "result": 17, "unit": "pathways"}, {"measurement": "half-life", "setting": "[4]", "result": 13, "unit": "min"}, {"measurement": "biomarkers affected", "setting": "[5]", "result": "No biomarkers were affected"}, {"measurement": "concentration-response in BioMap data generated during the ToxCast program", "setting": "[6]", "result": "No concentration-response"}, {"measurement": "summarized PoDs after 24 h exposure (range)", "setting": "HepaRG 3D [7]", "result": "41 to 55", "unit": "µM"}, {"measurement": "PoDT, BMD of Reactome pathway with lowest BMD that meets significance threshold criteria", "setting": "HepaRG 3D [7]; 24 h", "result": 41, "unit": "µM"}, {"measurement": "number of genes in gene-level tests", "setting": "HepaRG 3D [7]; 24 h", "result": "(9 genes)"}, {"measurement": "PoDT, Mean BMD of genes between 25th and 75th percentile", "setting": "HepaRG 3D [7]; 24 h, fewer than 20 genes (*)", "result": "46* µM"}, {"measurement": "PoDT, 20 pathways with the lowest BMD Reactome", "setting": "HepaRG 3D [7]; 24 h, fewer than 20 pathways (*)", "result": "46* µM"}, {"measurement": "number of genes in gene-level tests", "setting": "HepaRG 3D [7]; 24 h, listed as coumarin", "result": 9, "unit": "genes"}, {"measurement": "number of pathways in pathway-level tests", "setting": "HepaRG 3D [7]; 24 h, listed as coumarin", "result": 2, "unit": "pathways"}, {"measurement": "IC50", "setting": "MAO-A [8]", "result": 12, "unit": "µM"}, {"measurement": "IC50", "setting": "MAO-B", "result": 40.7, "unit": "µM"}, {"measurement": "Body Lotion Min. 5th percentile MoS", "setting": "[9]; PubChem, Carbonic Anhydrase Type I", "result": 158}, {"measurement": "Preliminary MoS (range)", "setting": "[9]; body lotion", "result": "158-22048"}, {"measurement": "MoS (the 5th percentile), all PoDs", "setting": "[9]; face cream and body lotion", "result": "higher than 100"}, {"measurement": "Preliminary MoS (range)", "setting": "[9]; face cream", "result": "706-96738"}, {"measurement": "Mean % inhibition, Specific binding", "setting": "MAO-A [10]", "result": 22, "unit": "%"}, {"measurement": "PoDT, Mean BMD of genes between 25th and 75th percentile", "setting": "MCF7; MCF7, 24 h", "result": 1, "unit": "µM"}, {"measurement": "cytotoxicity (> 20%)", "setting": "MCF7; MCF7, up to the maximum tested concentration, data not shown", "result": "No significant cytotoxicity"}, {"measurement": "tolerable daily intake (TDI) for coumarin in foods", "setting": "[11]", "result": "0 to 0.1", "unit": "mg/kg/day"}, {"measurement": "Blvrb-GFP oxidative stress marker", "setting": "mES reporter cell lines; presence of S9, 24 h", "result": "activated"}, {"measurement": "Btg2-GFP reporter (p53 response) activation", "setting": "mES reporter cell lines; presence of S9, 24 h", "result": "weak activation"}, {"measurement": "Srxn1-GFP oxidative stress marker", "setting": "mES reporter cell lines; presence of S9, 24 h", "result": "activated"}, {"measurement": "cytotoxicity", "setting": "mES reporter cell lines; up to 1000 µM, absence or presence of S9", "result": "No significant cytotoxicity"}, {"measurement": "Srxn1-GFP oxidative stress reporter", "setting": "mES reporter cell lines; without metabolic activation, 24 h", "result": "induced"}, {"measurement": "biomarker changes at 24 h", "setting": "HepaRG 3D [12]", "result": "no changes"}]}]}
